Among the data in US7803822B2, “Triazole derivative and use thereof” (Takeda Pharmaceutical Company Limited, priority 2005, dated 2010) are IC50 values, retold here.

The assay concerns the target T1, human PAR-1 (Homo sapiens, UniProt P25116).
T1 construct: expressed in transfected cells; host or cells: CHO-K1 (transformant flag/trn/CHO-K1)
T1 sequence (P25116 22-425): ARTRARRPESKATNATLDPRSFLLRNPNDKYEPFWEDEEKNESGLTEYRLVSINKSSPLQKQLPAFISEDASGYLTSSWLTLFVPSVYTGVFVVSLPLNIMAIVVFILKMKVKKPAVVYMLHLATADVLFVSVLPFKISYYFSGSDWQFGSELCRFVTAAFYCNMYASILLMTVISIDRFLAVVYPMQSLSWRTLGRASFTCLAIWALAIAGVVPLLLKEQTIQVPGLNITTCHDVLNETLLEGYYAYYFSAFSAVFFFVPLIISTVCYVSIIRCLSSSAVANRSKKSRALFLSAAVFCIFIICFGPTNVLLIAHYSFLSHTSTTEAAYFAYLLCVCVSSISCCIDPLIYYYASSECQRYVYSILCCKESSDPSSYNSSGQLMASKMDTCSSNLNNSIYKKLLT
Nature of the assay: Evaluation of PAR-1 antagonistic action by intracellular calcium concentration variation assay (FLIPR). The format is cell-based. Particulars: human PAR-1-expressing CHO cells, agonist peptide SFLLRN-NH2 final concentration 0.3 nM, Fluo-3AM. Here is the method: Evaluation of PAR-1 Antagonistic Action of Compound by Intracellular Calcium Concentration Variation Assay
Human PAR-1-expressing cells was plated at 3×10^4 cells/well on a 96 well clear bottom plate (Corning 3904 type) and cultured for 16-24 hr. The medium was removed from the wells of the plate, measurement buffer (50 μL, 115 mM NaCl, 5.4 mM KCl, 1.8 mM CaCl2, 0.8 mM MgCl2, 13.8 mM D-glucose, 0.1% BSA, 20 mM HEPES, pH 7.4) containing 2.5 μg/mL of Fluo-3AM (manufactured by Dojindo Laboratories), 0.08% Pluronic F-127 and 2.5 mM Probenecid was added to the cells and the mixture was reacted at 37° C. for 1 hr. The cells were washed twice with the measurement buffer. After addition of the measurement buffer (100 μL), a measurement buffer (50 μL) containing a test compound was added, and the mixture was stood still for 10 min. The plate was moved to a fluorometry image-plate reader (FLIPR-1, manufactured by Molecular Devices). […] The intracellular calcium concentration was measured by FLIPR.
On the technique in general: Calcium flux is commonly read through the fluorescence of an indicator in the cells.

As to `CCNC(=O)c1ccc(-n2cc(C(=O)NC3CC3)nn2)c(OCCCc2ccccc2)c1` [Example 133, N-cyclopropyl-1-{4-[(ethylamino)carbonyl]-2-(3-phenylpropoxy)phenyl}-1H-1,2,3-triazole-4-carboxamide], the 50% inhibitory concentration (IC50) (as a rule, the concentration that inhibits the measured activity by half) turned out to be 0.27 µM. For the compound `CCNC(=O)c1ccc(-n2nnc(C(=O)NC3CC3)c2CC2CCCC2)cc1` [Example 103, 5-(cyclopentylmethyl)-N-cyclopropyl-1-{4-[(ethylamino)carbonyl]phenyl}-1H-1,2,3-triazole-4-carboxamide], the IC50 amounted to 0.78 µM. For `CCCCc1c(C(=O)NC2CC2)nnn1-c1ccc(C(=O)NCC)cc1` [Example 90, 5-butyl-N-cyclopropyl-1-{4-[(ethylamino)carbonyl]phenyl}-1H-1,2,3-triazole-4-carboxamide] the value was 2.4 µM. Under `CCCc1c(C(=O)NCc2ccccn2)nnn1-c1ccc(C(=O)NCC)cc1` [Example 84, 1-{4-[(ethylamino)carbonyl]phenyl}-5-propyl-N-(pyridin-2-ylmethyl)-1H-1,2,3-triazole-4-carboxamide] stands 1.3 µM. Regarding `CCCNC(=O)c1ccc(-n2nnc(C(=O)NC3CC3)c2CCC)cc1` [Example 55, N-cyclopropyl-5-propyl-1-{4-[(propylamino)carbonyl]phenyl}-1H-1,2,3-triazole-4-carboxamide], the half-maximal inhibitory concentration (IC50) came out at 3.6 µM. Under `CCNC(=O)c1ccc(-n2nnc(C(=O)NC3CC3)c2COc2ccc(F)cc2)cc1` [Example 123, N-cyclopropyl-1-{4-[(ethylamino)carbonyl]phenyl}-5-[(4-fluorophenoxy)methyl]-1H-1,2,3-triazole-4-carboxamide] stands 0.98 µM; under `CCNC(=O)c1ccc(-n2nnc(C(=O)NC3CC3)c2/C=C/c2ccccc2)cc1` [Example 106, N-cyclopropyl-1-{4-[(ethylamino)carbonyl]phenyl}-5-[(E)-2-phenylvinyl]-1H-1,2,3-triazole-4-carboxamide], 0.4 µM.

In the case of `CCCc1c(C(=O)NC2CCCc3ccccc32)nnn1-c1ccc(C(=O)NCC)cc1` (centres unmarked) [Example 89, 1-{4-[(ethylamino)carbonyl]phenyl}-5-propyl-N-(1,2,3,4-tetrahydronaphthalen-1-yl)-1H-1,2,3-triazole-4-carboxamide], the 50% inhibitory concentration (IC50) is 0.67 µM. Consider `CCNC(=O)c1ccc(-n2nnc(C(=O)NC3CC3)c2CCCCCc2ccccc2)cc1` [Example 101, N-cyclopropyl-1-{4-[(ethylamino)carbonyl]phenyl}-5-(5-phenylpentyl)-1H-1,2,3-triazole-4-carboxamide], for which the IC50 amounted to 0.82 µM.

As for `CCNC(=O)c1ccc(-n2nnc(C(=O)NC3CC3)c2CCCOCc2ccccc2)cc1` [Example 91, 5-[3-(benzyloxy)propyl]-N-cyclopropyl-1-{4-[(ethylamino)carbonyl]phenyl}-1H-1,2,3-triazole-4-carboxamide], the concentration for half-maximal inhibition (IC50) came out at 2.2 µM. In the case of `CCNC(=O)c1ccc(-n2nnc(C(=O)NC3CC3)c2CCCOc2ccc(OC(F)(F)F)cc2)cc1` [Example 522, N-cyclopropyl-1-{4-[(ethylamino)carbonyl]phenyl}-5-{3-[4-(trifluoromethoxy)phenoxy]propyl}-1H-1,2,3-triazole-4-carboxamide], the half-maximal inhibitory concentration (IC50) was 0.33 µM.

As to `CCNC(=O)c1ccc(-n2nnc(C(=O)NC3CC3)c2CC2CC2)cc1` [Example 96, N-cyclopropyl-5-(cyclopropylmethyl)-1-{4-[(ethylamino)carbonyl]phenyl}-1H-1,2,3-triazole-4-carboxamide], the IC50 was found to be 1.2 µM.

Turning to `CCNC(=O)c1ccc(-n2nnc(C(=O)NC3CC3)c2CCCCF)cc1` [Example 108, N-cyclopropyl-1-{4-[(ethylamino)carbonyl]phenyl}-5-(4-fluorobutyl)-1H-1,2,3-triazole-4-carboxamide], the IC50 came out at 0.62 µM. On to `CCNC(=O)c1ccc(-n2nnc(C(=O)NC3CC3)c2CCCO)cc1` [Example 113, N-cyclopropyl-1-{4-[(ethylamino)carbonyl]phenyl}-5-(3-hydroxypropyl)-1H-1,2,3-triazole-4-carboxamide], for which the IC50 was determined as 3.1 µM.
